# Reference: paper PMC12483151, “Late-Stage Functionalization of Lysine to Organelle-Targeting Fluorescent Probes” (JACS Au, 2025)
# Where “and” joins values, the source holds several entries; their conditions need not be identical. Identical values can stand only once. Where a SMILES comes first, the peptide text is derived from it.
# What was measured:
# [1] = tested on: E. coli; settings: MHB, 37 °C, 18 h, OD600; for Discrete-well MIC (CLSI definition, two-fold dilutions): E. coli ~5 x 10^5 CFU/mL, lowest concentration with ≤ 10 % growth; for Extrapolated (interpolated) MIC (4-parameter logistic fit): E. coli, concentration at 10 % growth by curve fit
# Procedure: Plates were sealed and incubated
# (1 picture or pasted object on this page, not shown here)
# [2] = tested on: T-47D cells
# [3] = tested on: T-47D cells; test: Mitochondrial colocalization imaging with MitoTracker Red; type: cell-based, Human; settings: T-47D live cells
# Procedure: Cells were plated in an IBIDI 8-well glass bottom chamber at a density of 25,000 cells per well in media and allowed to adhere overnight at 37 °C, 5% CO2. Fresh 10 mM stock solutions of probes were prepared in DMSO on the day of experimentation. Working solutions of all compounds in media were prepared on the day of experimentation. Culture media was removed from the wells, and 200 mL of 100 nM probe was added to the desired wells and placed in an incubator for 30 min. Media was removed from the wells, and 200 mL of 100 nM MitroTracker-Red FM (ThermoFisher, M22425) was added to the desired wells and placed in an incubator for 15 min. Staining media was removed, and cells were washed with 200 μL of PBS for 5 min (repeated 3 times). PBS was removed and replaced with 200 mL of fresh medium, followed by immediate imaging. Five images were captured for each well. Colocalization analysis for Pearson’s R (R) and Mander’s Colocalization Coefficient (MCC) was conducted using the EzColocalization Plugin for ImageJ.
# Colocalization studies – EzColocalization Details. Co-localization studies were done using
# EzColocalization. EzColocalization is an ImageJ Application Program Interface (APIs)-an open-source
# plugin, where individual cells can be highlighted and colocalization studies can be run across three
# channels. The metric matrix for TOS (linear scaling) in the heatmap quantifies colocalization. FT […]
smiles,measurement,setting,value
CC(=O)N[C@@H](CCCCN)C(=O)N[C@@H](CCCNC(=N)N)C(=O)N[C@@H](Cc1c[nH]c2ccccc12)C(=O)N[C@@H](CCCNC(=N)N)C(=O)N[C@@H](Cc1c[nH]c2ccccc12)C(N)=O [2g] (Ac-KRWRW-NH2),"Discrete-well MIC (CLSI definition, two-fold dilutions)",[1],125 µM
same,Extrapolated (interpolated) MIC (4-parameter logistic fit),[1],0.0693 mM and 0.069 ± 0.06 mM
COc1ccc(C(=O)c2c(-c3ccc(OC)cc3)cc(-c3ccc(OC)cc3)[n+](CCCC[C@H](NC(=O)[C@H](CC(=O)O)NC(=O)[C@H](CC(C)C)NC(C)=O)C(=O)N[C@H](C(=O)N[C@@H](CC(N)=O)C(=O)N[C@@H](CCCNC(=N)N)C(N)=O)C(C)C)c2-c2ccc(OC)cc2)cc1 [5b],Percentage cell death (average),"[2]; 100 nM, 1 h, Annexin V/PI, n = 3 biological replicates, one average given for 4f and 5b",4.6%
COc1ccc(C(=O)c2c(-c3ccc(OC)cc3)cc(-c3ccc(OC)cc3)[n+](CCCC[C@H](NC(C)=O)C(=O)N[C@@H](CCCNC(=N)N)C(=O)N[C@@H](Cc3c[nH]c4ccccc34)C(=O)N[C@@H](CCCNC(=N)N)C(=O)N[C@@H](Cc3c[nH]c4ccccc34)C(N)=O)c2-c2ccc(OC)cc2)cc1 [5g],"Discrete-well MIC (CLSI definition, two-fold dilutions)",[1],125 µM
same,Extrapolated (interpolated) MIC (4-parameter logistic fit),[1],0.0715 mM and 0.072 ± 0.01 mM
"COc1cccc2c1C(=O)c1c(O)c3c(c(O)c1C2=O)C[C@@](O)(C(=O)CO)C[C@@H]3O[C@H]1C[C@H](N)[C@H](O)[C@H](C)O1 [Dox, doxorubicin]",Pearson's coefficient (colocalization with MitoTracker Red),"[3]; 100 nM probe, 100 nM MitoTracker Red, EzColocalization/ImageJ, 1 = perfect colocalization, -1 = none",0.397
same,subcellular localization,"[3]; 100 nM, co-stained with MitoTracker Red",primarily colocalized with the nucleus
same,survival less than DOX-Py,"[2]; 100 nM, 1 h, Annexin V/PI, n = 3 biological replicates",20%
same,survival rate,"[2]; Annexin V/PI flow cytometry (100 nM, 1 h per Figure S25)",40%
